# Results as given in patent US6921840B1 (The Trustees of the University of Pennsylvania, priority 1999, dated 2005).
# “And” between values parts separate entries of the source, which are not always exact repeats. Equal values may be shown once. Read-outs that look alike come from different tables or passages of the source.
# Legend:
# [1] = In vitro stability of radioiodinated ligand; assay type: physicochemical
# [2] = biological target: T1, SERT (Rattus norvegicus, UniProt P31652); test: [125I]IDAM saturation binding to rat frontal cortical membrane homogenates; parameters: The frontal cortex of rat brain were dissected and homogenized in 30 volumes of buffer; from tissue; host or cells: rat frontal cortex membrane homogenates (male Sprague-Dawley rats, control and PCA-lesioned)
# Protocol: The homogenates were centrifuged at 20,000 g for 20 min. The resulting pellets were then re-suspended and recentrifuged. The final pellets were suspended in the same buffer and used for in vitro binding assays.
# Binding assays were performed in glass tubes (12×75 mm) with a final volume of 0.5 ml.
# Various inhibitors were serially diluted with the buffer containing 0.1% BSA to overcome the stickiness and loss due to dilution. […] Incubation was carried out for 60 min at room temperature and then terminated by separation of bound from free radioligand by filtration through glass fiber filters (Schleicher & Schuell No. 25, Keene, N.H.) presoaked with 1% polyethylenimine. The filters were then washed three times with 3 ml of ice-cold […] Tris buffer and counted in a gamma counter (Packard 5000) with 70% efficiency. To study the effect of […], the homogenates were prepared in a sodium-free 50 mM Tris-HCl/5 mM KCl buffer.
# Ten rats were divided into two-groups, and they were injected daily with PCA (8 mg/kg, i.p.) or saline for 3 consecutive days, respectively. The animals were sacrificed 5 days after the last injection and the frontal cortical membrane homogenates were prepared.
# [3] = biological target: T1, SERT
# Protocol: At 60 min post i.v. injection, the animals were sacrificed by cardiac excision while under ether anesthesia. The brains were rapidly removed, placed in embedding medium (Tissue Tek, Miles Laboratory, Elkhart, Ind.) and frozen with powdered dry ice. After reaching equilibrium at −20° C. consecutive 20 μm coronal sections were cut on a cryostat microtome (Hacker Instruments, Fairfield, N.J.) thaw-mounted on microscope slides, and air-dried at room temperature. […] The microscale standards were calibrated with tissue mash standards for the value conversion to nCi/mg protein. The exposed film was developed by a Kodak automatic film processor. […] The brain sections of the pretreated rats were processed following the same procedures described above for the normal untreated rats.
# [4] = Metabolite analysis of brain tissue; assay type: in vivo, rat; conditions: rats, 60 min post-injection
# Protocol: Sixty minutes after an i.v. injection of 200-300 μCi of [^125I]IDAM into two male rats, the areas corresponding to the hypothalamus region were dissected individually. The tissues were then homogenized in 1.5 ml of 50 mM Tris buffer (pH 7.4) and the homogenates were extracted with ethyl acetate (3×1.5 ml) in the presence of the non-radioactive IDAM (100 μg). The extracted ethyl acetate layers were evaporated to near dryness and the purity of [^125I]IDAM in the condensed extracts was analyzed by HPLC (PRP-1 column; solvent: CH3CN/DMGA: 90/10; flow rate: 1 ml/min). Control samples were performed by adding 5-10 μCi of [^125I]IDAM to hypothalamus tissues followed by the same procedures used for the experimental samples to determine the extraction efficiency.
# [5] = Biodistribution in rats after i.v. injection of radioactive tracer; assay type: in vivo, rat
# Protocol: Three or four rats per group were used for each biodistribution study. While under ether anesthesia, 0.2 ml of a saline solution containing 10 μCi of radioactive tracer was injected into the femoral vein. The rats were sacrificed at the time indicated by cardiac excision while under ether anesthesia. Organs of interest were removed and weighed, and the radioactivity was counted using a Packard automatic gamma counter (Model 5000). The percent dose per organ was calculated by a comparison of the tissue counts to counts of 1% of the initial dose (100 times diluted aliquots of the injected material) measured at the same time.
# Regional brain distribution in rats was measured after an i.v. injection of the radioactive tracer. Samples from different brain regions [cortex (CX), striatum (ST), hippocampus (HP), cerebellum (CB) and hypothalamus (HY)] were dissected, weighed and counted. The percentage dose/g of each sample was calculated by comparing sample counts with the counts of the diluted initial dose described above. The ratio of specific binding (SB) in each region was obtained by dividing the difference of each region from the cerebellum (percentage dose/g) with that of the cerebellum [(region-CB)/CB].
# [6] = Partition coefficient octanol/buffer; assay type: physicochemical; conditions: n-octanol and phosphate buffer, pH 7.4
# [7] = tested on: serotonin transporters; test: SPECT imaging in baboons; conditions: baboon, 120 minutes post-i.v. injection
# Description: The acquisition of SPECT images were obtained by a triple-head gamma camera equipped with ultra high resolution fan-beam collimators (Picker Prism 3000). […] The projection images were reconstructed by filtered-back projection. Then, a 3D, low pass Butterworth filter was applied. For uniform attenuation correction, Chang's first order method was used.
# [8] = PCA-lesioned rats, frontal cortical membranes
# [9] = control rats, frontal cortical membranes
# T1 sequence (P31652 whole entry): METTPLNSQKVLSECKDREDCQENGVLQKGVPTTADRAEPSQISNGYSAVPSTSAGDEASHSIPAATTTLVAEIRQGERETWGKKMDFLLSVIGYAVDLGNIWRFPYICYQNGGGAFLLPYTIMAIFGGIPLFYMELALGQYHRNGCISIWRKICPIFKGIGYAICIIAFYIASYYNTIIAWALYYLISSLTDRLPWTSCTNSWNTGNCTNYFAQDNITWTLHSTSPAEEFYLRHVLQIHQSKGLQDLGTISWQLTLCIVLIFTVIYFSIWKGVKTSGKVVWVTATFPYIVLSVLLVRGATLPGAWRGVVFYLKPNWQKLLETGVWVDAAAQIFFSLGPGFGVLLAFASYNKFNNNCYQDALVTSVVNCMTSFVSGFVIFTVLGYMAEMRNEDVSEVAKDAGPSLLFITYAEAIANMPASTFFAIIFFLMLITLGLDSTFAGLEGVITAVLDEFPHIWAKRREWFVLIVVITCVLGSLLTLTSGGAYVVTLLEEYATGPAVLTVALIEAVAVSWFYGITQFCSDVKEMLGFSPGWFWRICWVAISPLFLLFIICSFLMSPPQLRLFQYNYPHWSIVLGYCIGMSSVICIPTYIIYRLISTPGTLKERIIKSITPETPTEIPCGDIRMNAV
compound,measurement,setting,value
CN(C)Cc1ccccc1Sc1ccc([125I])cc1CO [[^125I]IDAM],stability: radiochemical purity determined by HPLC,[1]; in 50% ethanol for up to two months after radioiodination,> 95%
same,Bmax of [125I]IDAM binding,[2]; [8],20±7 fmol/mg protein
same,Kd,[2]; [8],0.05 ± 0.15 nM
same,Kd of [125I]IDAM binding,[2]; [8],no significant change
same,loss of [125I]IDAM binding to rat cortical membranes,[2]; after destruction of serotonergic neurons by PCA,90%
same,nonspecific binding,"[2]; at Kd value, rat frontal cortical membranes",< 5%
same,Bmax of [125I]IDAM binding,[2]; [9],272±30 fmol/mg protein
same,Kd,[2]; [9],0.25 nM and 0.2 nM
same,nonspecific binding (non-paroxetine blockable),[3]; HP,more than 70%
same,percentage of specific binding (paroxetine blockable),[3]; hippocampal regions and several cortical regions,less than 30%
same,percentage of specific binding (paroxetine blockable),"[3]; interperduncular nucleus, median raphe and dorsomedial hypothalamus",more than 95%
same,unmetabolized tracer recovered from hypothalamus region,[4],> 95%
same,half-time of clearance from the brain regions,[5],less than 60 min
same,% dose/g CEREBELLUM,[5]; 2 min,1.377 ± 0.479 % dose/g
same,% dose/g CORTEX,[5]; 2 min,2.353 ± 0.444 % dose/g
same,% dose/g HIPPOCAMPUS,[5]; 2 min,1.485 ± 0.263 % dose/g
same,% dose/g HYPOTHALAMUS,[5]; 2 min,1.782 ± 0.412 % dose/g
same,% dose/g STRIATUM,[5]; 2 min,1.377 ± 0.344 % dose/g
same,% dose/organ BLOOD,[5]; 2 min,7.619 ± 0.41 % dose/organ
same,% dose/organ BRAIN,[5]; 2 min,2.44 % dose/organ and 2.44 ± 0.34 % dose/organ
same,% dose/organ HEART,[5]; 2 min,1.303 ± 0.10 % dose/organ
same,% dose/organ KIDNEY,[5]; 2 min,6.54 ± 0.26 % dose/organ
same,% dose/organ LIVER,[5]; 2 min,6.46 ± 1.18 % dose/organ
same,% dose/organ LUNG,[5]; 2 min,10.42 ± 1.36 % dose/organ
same,% dose/organ MUSCLE,[5]; 2 min,19.06 ± 8.51 % dose/organ
same,% dose/organ SKIN,[5]; 2 min,3.27 ± 0.48 % dose/organ
same,% dose/organ SPLEEN,[5]; 2 min,0.31 ± 0.08 % dose/organ
same,"SB: specific binding = (region-CB)/CB, CORTEX",[5]; 2 min,0.709
same,"SB: specific binding = (region-CB)/CB, HIPPOCAMPUS",[5]; 2 min,0.079
same,"SB: specific binding = (region-CB)/CB, HYPOTHALAMUS",[5]; 2 min,0.294
same,"SB: specific binding = (region-CB)/CB, STRIATUM",[5]; 2 min,0.000
same,total radioactivity recovered from the major organs,[5]; 2 min post-injection,less than 60 % of total injected dose
same,% dose/g CEREBELLUM,[5]; 30 min,0.416 ± 0.045 % dose/g
same,% dose/g CORTEX,[5]; 30 min,0.820 ± .0108 % dose/g
same,% dose/g HIPPOCAMPUS,[5]; 30 min,0.832 ± 0.048 % dose/g
same,% dose/g HYPOTHALAMUS,[5]; 30 min,0.918 ± 0.113 % dose/g
same,% dose/g STRIATUM,[5]; 30 min,0.875 ± 0.086 % dose/g
same,% dose/organ BLOOD,[5]; 30 min,7.63 ± 1.03 % dose/organ
same,% dose/organ BRAIN,[5]; 30 min,1.174 ± 0.062 % dose/organ
same,% dose/organ HEART,[5]; 30 min,0.27 ± 0.02 % dose/organ
same,% dose/organ KIDNEY,[5]; 30 min,3.48 ± 0.643 % dose/organ
same,% dose/organ LIVER,[5]; 30 min,4.709 ± 0.347 % dose/organ
same,% dose/organ LUNG,[5]; 30 min,1.78 ± 0.08 % dose/organ
same,% dose/organ MUSCLE,[5]; 30 min,16.27 ± 0.82 % dose/organ
same,% dose/organ SKIN,[5]; 30 min,6.121 ± 0.536 % dose/organ
same,% dose/organ SPLEEN,[5]; 30 min,0.279 ± 0.026 % dose/organ
same,"SB: specific binding = (region-CB)/CB, CORTEX",[5]; 30 min,0.972
same,"SB: specific binding = (region-CB)/CB, HIPPOCAMPUS",[5]; 30 min,1.002
same,"SB: specific binding = (region-CB)/CB, HYPOTHALAMUS",[5]; 30 min,1.208
same,"SB: specific binding = (region-CB)/CB, STRIATUM",[5]; 30 min,1.104
same,% dose/g CEREBELLUM,[5]; 60 min,0.153 ± 0.019 % dose/g
same,% dose/g CORTEX,[5]; 60 min,0.310 ± 0.060 % dose/g
same,% dose/g HIPPOCAMPUS,[5]; 60 min,0.355 ± 0.016 % dose/g
same,% dose/g HYPOTHALAMUS,[5]; 60 min,0.422 ± 0.066 % dose/g
same,% dose/g STRIATUM,[5]; 60 min,0.257 ± 0.042 % dose/g
same,% dose/organ BLOOD,[5]; 60 min,6.380 ± 0.729 % dose/organ
same,% dose/organ BRAIN,[5]; 60 min,0.50 % dose/organ and 0.503 ± 0.027 % dose/organ
same,% dose/organ HEART,[5]; 60 min,0.187 ± 0.008 % dose/organ
same,% dose/organ KIDNEY,[5]; 60 min,1.993 ± 0.351 % dose/organ
same,% dose/organ LIVER,[5]; 60 min,4.120 ± 0.766 % dose/organ
same,% dose/organ LUNG,[5]; 60 min,0.931 ± 0.086 % dose/organ
same,% dose/organ MUSCLE,[5]; 60 min,6.775 ± 0.145 % dose/organ
same,% dose/organ SKIN,[5]; 60 min,7.538 ± 0.127 % dose/organ
same,% dose/organ SPLEEN,[5]; 60 min,0.167 ± 0.027 % dose/organ
same,"SB: specific binding = (region-CB)/CB, CORTEX",[5]; 60 min,1.024
same,"SB: specific binding = (region-CB)/CB, HIPPOCAMPUS",[5]; 60 min,1.313
same,"SB: specific binding = (region-CB)/CB, HYPOTHALAMUS",[5]; 60 min,1.75
same,"SB: specific binding = (region-CB)/CB, STRIATUM",[5]; 60 min,0.673
same,% dose/g CEREBELLUM,[5]; 120 min,0.053 ± 0.005 % dose/g
same,% dose/g CORTEX,[5]; 120 min,0.89 ± 0.018 % dose/g
same,% dose/g HIPPOCAMPUS,[5]; 120 min,0.134 ± 0.011 % dose/g
same,% dose/g HYPOTHALAMUS,[5]; 120 min,0.142 ± 0.027 % dose/g
same,% dose/g STRIATUM,[5]; 120 min,0.105 ± 0.052 % dose/g
same,% dose/organ BLOOD,[5]; 120 min,4.160 ± 0.150 % dose/organ
same,% dose/organ BRAIN,[5]; 120 min,0.17 % dose/organ and 0.168 ± 0.029 % dose/organ
same,% dose/organ HEART,[5]; 120 min,0.114 ± 0.023 % dose/organ
same,% dose/organ KIDNEY,[5]; 120 min,0.832 ± 0.071 % dose/organ
same,% dose/organ LIVER,[5]; 120 min,2.722 ± 0.308 % dose/organ
same,% dose/organ LUNG,[5]; 120 min,0.422 ± 0.055 % dose/organ
same,% dose/organ MUSCLE,[5]; 120 min,4.714 ± 0.977 % dose/organ
same,% dose/organ SKIN,[5]; 120 min,6.716 ± 1.304 % dose/organ
same,% dose/organ SPLEEN,[5]; 120 min,0.066 ± 0.008 % dose/organ
same,"SB: specific binding = (region-CB)/CB, CORTEX",[5]; 120 min,0.674
same,"SB: specific binding = (region-CB)/CB, HIPPOCAMPUS",[5]; 120 min,1.524
same,"SB: specific binding = (region-CB)/CB, HYPOTHALAMUS",[5]; 120 min,1.679
same,"SB: specific binding = (region-CB)/CB, STRIATUM",[5]; 120 min,0.967
same,% dose/g CEREBELLUM,[5]; 240 min,0.012 ± 0.000 % dose/g
same,% dose/g CORTEX,[5]; 240 min,0.017 ± 0.003 % dose/g
same,% dose/g HIPPOCAMPUS,[5]; 240 min,0.020 ± 0.003 % dose/g
same,% dose/g HYPOTHALAMUS,[5]; 240 min,0.022 ± 0.011 % dose/g
same,% dose/g STRIATUM,[5]; 240 min,0.018 ± 0.002 % dose/g
same,% dose/organ BLOOD,[5]; 240 min,2.246 ± 0.303 % dose/organ
same,% dose/organ BRAIN,[5]; 240 min,0.033 ± 0.002 % dose/organ
same,% dose/organ HEART,[5]; 240 min,0.048 ± 0.004 % dose/organ
same,% dose/organ KIDNEY,[5]; 240 min,0.488 ± 0.065 % dose/organ
same,% dose/organ LIVER,[5]; 240 min,1.469 ± 0.189 % dose/organ
same,% dose/organ LUNG,[5]; 240 min,0.220 ± 0.018 % dose/organ
same,% dose/organ MUSCLE,[5]; 240 min,2.818 ± 0.208 % dose/organ
same,% dose/organ SKIN,[5]; 240 min,3.851 ± 0.073 % dose/organ
same,% dose/organ SPLEEN,[5]; 240 min,0.024 ± 0.004 % dose/organ
same,"SB: specific binding = (region-CB)/CB, CORTEX",[5]; 240 min,0.475
same,"SB: specific binding = (region-CB)/CB, HIPPOCAMPUS",[5]; 240 min,0.705
same,"SB: specific binding = (region-CB)/CB, HYPOTHALAMUS",[5]; 240 min,0.865
same,"SB: specific binding = (region-CB)/CB, STRIATUM",[5]; 240 min,0.508
same,partition coefficient (PC),[6],473
same,logD,[6]; read-out: partition coefficient (PC) (converted),2.67
CN(C)Cc1ccccc1Sc1ccc(I)cc1CO [[^123I]IDAM],in vitro stability,[1]; prolonged standing (>20 hr) at 0-4° C. in saline solution,no decomposition observed
same,ratio of MB/CER uptake,[7],2.4
